Measurements reported in PMC11597353, “Synthesis of Novel Gefitinib-Conjugated 1,2,3-Triazole Derivatives and Their Effect of Inducing DNA Damage and Apoptosis in Tumor Cells” (Molecules, 2024).

Legend:
normal liver cells (L02) = assay: CCK8 toxicity against normal liver cells (L02); conditions: Figure 3
HepG2 cells [1] = assay: Scratch wound healing assay; format: cell-based, human
Description: To investigate the effect of the compounds on the migration of wild-type liver cancer cells, we conducted wound healing and Transwell assays to assess changes in the migration ability of HepG2 cells after treatment with compounds 11m and 11t. […] The Transwell migration assay, another important method for evaluating cell migration, involves seeding tumor cells in a chamber and assessing their migration ability by counting the number of cells that pass through the membrane. […] These findings indicate that compounds 11m and 11t can inhibit the migration ability of liver cancer cells in a concentration-dependent manner.
HepG2 cells were seeded in 24-well plates, and when the cell density reached 95%, a vertical scratch was made along the edge of the plate cover using a yellow pipette tip. After washing with PBS, images of the scratches were taken at 0 h under a microscope, and each well was treated with 11m or 11t (0, 2, 4, and 8 μM) and incubated in a cell culture incubator. Images were taken at 12, 24, and 48 h after the scratch was made.

p-H2AX in HepG2 cells = assay: DNA damage immunofluorescence and Western blot of p-H2AX; format: cell-based, human; conditions: HepG2, 2, 4, 8 μM
Method: Previous studies have reported that the phosphorylation of H2AX is a highly specific and sensitive molecular marker of DNA damage. To determine whether the inhibitory effects of compounds 11m and 11t on HepG2 cells are related to p-H2AX, we conducted immunofluorescence and Western blot analyses.
HepG2 cells were seeded in laser confocal culture dishes (Nest, Wuxi, China) and incubated for 24 h, followed by treatment with 11m or 11t (2, 4, and 8 μM) for 24 h. After washing with PBS, cells were fixed with 4% paraformaldehyde at room temperature for 20 min. After washing with PBS, cells were permeabilized with 0.5% Triton X-100 for 20 min, followed by further washing with PBS. Cells were then blocked with goat serum at room temperature for 1 h, followed by incubation with p-H2AX (Cell Signaling Technology, Beverly, MA, USA) at a dilution of 1:500 overnight at 4 °C. After washing with PBS, cells were incubated with Cy3 (Proteintech, Wuhan, China) at a dilution of 1:100 in the dark at room temperature for 1 h. After washing with PBS, nuclei were stained with DAPI for 5 min. Cells were observed and imaged using an oil immersion lens under a laser confocal microscope (Nikon, Tokyo, Japan).
HepG2 cells were seeded in 6-well plates and incubated for 24 h. […] Protein supernatants were mixed with loading buffer, denatured at 100 °C for 10 min, and quantified using BCA. […]

HepG2 cells [2] = assay: DAPI staining for apoptotic morphology; format: cell-based, human; conditions: HepG2, 2, 4, 8 μM, 48 h
Method: To confirm the apoptosis-inducing activity of 11m and 11t in liver cancer cells, HepG2 cells were treated with different concentrations of compounds 11m and 11t for 48 h, followed by DAPI staining.
HepG2 cells were seeded in 48-well plates and incubated for 24 h, then treated with different concentrations of 11m and 11t (2, 4, and 8 μM) for 48 h. After removing the original culture medium, the cells were washed with PBS and fixed with 4% paraformaldehyde at room temperature for 20 min. After washing with PBS, the cells were stained with DAPI (10 μg/mL) in the dark at room temperature for 5 min. After washing with PBS, apoptotic morphological changes were observed using a fluorescence microscope.

HepG2 cells [3] = assay: CCK8 cell viability / IC50 assay on HepG2 cells; conditions: for % Cell Viability (10 μM): 72 h; for IC50: read-out: HepG2, IC50 (μM) 72 h
Kunming mice = assay: Acute toxicity test in mice; format: in vivo
Method: To further assess the safety of the compounds, we conducted an acute toxicity experiment on mice.
Liver function was evaluated by measuring serum glutamic pyruvic transaminase (GPT) and glutamic oxaloacetic transaminase (GOT) levels (Figure 10C). GPT and GOT are commonly used indicators for assessing liver function, reflecting physiological and pathological changes in the liver. Elevated serum levels of GPT and GOT indicate damage to liver cells or mitochondria. […] This provides additional evidence for the high safety of the compound and experimental data for clinical drug safety (p > 0.05).
Six 5-week-old, SPF-grade, healthy, male Kunming mice (31.13 ± 1.13 g) were purchased from Henan Skibest Biotechnology Co., Ltd. (Anyang, China) (License No.: SCXK (Yu) 2020-0005). They were housed at the SPF animal center of the School of Basic Medicine and Forensic Science, Henan University of Science and Technology, with normal solid food and drinking water provided, and a 12 h light–dark cycle each day. After one week of acclimatization, the mice were randomly divided into two groups: the control group and the treatment group (11t), which were administered a single gavage of the corresponding volume of solvent and drug (drug concentration: 800 mg/kg; drug solvent: 10% DMSO + 40% PEG300 + 5% Tween 80 + 45% saline) at a dosage of 0.1 mL/10 g. After administration, the mice’s activity was monitored daily, and their weight was recorded. After 14 days, blood was collected via the eye and the mice were euthanized by cervical dislocation. The heart, liver, spleen, lungs, and kidneys were extracted, rinsed with saline, and the surface moisture was absorbed with filter paper. The weight of all organs was measured using an electronic balance. The organ coefficient was calculated as organ weight/body weight × 100. Blood samples were left at room temperature for 1 h, then centrifuged at 2500 rpm for 20 min to measure liver function indicators GPT and GOT (Nanjing Jiancheng Bioengineering Institute, Nanjing, China). After weighing the organs, they were fixed in 4% tissue fixative for 24 h, dehydrated, cleared, embedded in paraffin, and stained with HE for microscopic observation of the tissues.

[4] = mice, single gavage 800 mg/kg, day 14

| Structure (SMILES) | toxicity against normal liver cells (L02) (normal liver cells (L02)) | wound-healing rate (HepG2 cells [1]; HepG2, 2 μM, 12 h) | wound-healing rate (HepG2 cells [1]; HepG2, 2 μM, 24 h) | wound-healing rate (HepG2 cells [1]; HepG2, 2 μM, 48 h) | wound-healing rate (HepG2 cells [1]; HepG2, 4 μM, 12 h) | wound-healing rate (HepG2 cells [1]; HepG2, 4 μM, 24 h) | wound-healing rate (HepG2 cells [1]; HepG2, 4 μM, 48 h) | wound-healing rate (HepG2 cells [1]; HepG2, 8 μM, 12 h) | wound-healing rate (HepG2 cells [1]; HepG2, 8 μM, 24 h) | wound-healing rate (HepG2 cells [1]; HepG2, 8 μM, 48 h) | expression of p-H2AX (p-H2AX in HepG2 cells) | apoptotic morphological changes (DAPI staining) (HepG2 cells [2]) | % Cell Viability (10 μM) (HepG2 cells [3]) | IC50 (HepG2 cells [3]) | also measured |
| --- | --- | --- | --- | --- | --- | --- | --- | --- | --- | --- | --- | --- | --- | --- | --- |
| COc1cc2ncnc(Nc3cccc(-c4cn(Cc5ccc(I)cc5)nn4)c3)c2cc1OCCCN1CCOCC1 [Compound 11m, N-(3-(1-(4-iodobenzyl)-1H-1,2,3-triazol-4-yl)phenyl)-7-methoxy-6-(3-morpholinopropoxy)quinazolin-4-amine] | favorable safety profile | 14.32% | 20.33% | 41.13% | 13.89% | 20.60% | 36.35% | 8.96% | 16.39% | 18.48% | increased | typical apoptotic characteristics | 5.86 ± 0.04% | 3.08 ± 0.37 µM | melting point: 185 to 186 °C |
| COc1cc2ncnc(Nc3cccc(-c4cn(Cc5cccc(I)c5)nn4)c3)c2cc1OCCCN1CCOCC1 [Compound 11t, N-(3-(1-(3-iodobenzyl)-1H-1,2,3-triazol-4-yl)phenyl)-7-methoxy-6-(3-morpholinopropoxy)quinazolin-4-amine] | favorable safety profile | 11.03% | 16.02% | 35.36% | 14.18% | 25.67% | 33.66% | 9.87% | 13.26% | 19.54% | increased | typical apoptotic characteristics | 5.22 ± 0.36% | 3.6 ± 0.53 µM | toxicity in mice (Kunming mice; acute toxicity, 800 mg/kg gavage): low toxicity; body weight vs control group (Kunming mice; mice, single gavage 800 mg/kg, 14 days, p > 0.05): no statistically significant differences; histological analysis (H&E) of hearts, livers, spleens, lungs, and kidneys (Kunming mice; [4]): no significant toxic characteristics; organ indices of the heart, liver, spleen, lungs, and kidneys vs control group (Kunming mice; [4]): no statistically significant differences; organ morphological examination (Kunming mice; [4]): No pathological morphology was observed; serum GPT and GOT (biochemical indicators) vs control group (Kunming mice; mice, single gavage 800 mg/kg, day 14, p > 0.05): no statistically significant differences |
